Tested on: influenza A virus PR8-GLuc (H1N1) strain
Type: cell-based

## Cl.O=C(O)C12CC3CC(CC(Nc4nc(-c5c[nH]c6ncc(F)cc56)ncc4F)(C3)C1)C2 [13d]
  decrease of potency versus Pimodivir: 230 times

## Cl.O=C(O)[C@H]1C2CCC(C3CC32)[C@@H]1Nc1nc(-c2c[nH]c3ncc(F)cc23)ncc1F (some centres unmarked) [13b]
  decrease of potency versus Pimodivir: 12 times
